In US20200237766A1, “PKM2 ACTIVATORS IN COMBINATION WITH REACTIVE OXYGEN SPECIES FOR TREATMENT OF CANCER” (TOLERO PHARMACEUTICALS, INC., priority 2017, published 2020):
Where two headings read alike, the source gives them in different places.

Target: PKM2 (Homo sapiens, UniProt P14618)
Experiment: PKM2 activation biochemical assay (AC50 / max. response vs fructose 1,6-bisphosphate)
Conditions: for Max. Resp. (%): % maximum response in a biochemical assay as compared with Fructose 1,6-bisphosphate
[1] = biochemical assay, read-out: PKM2 AC50

PKM2, sequence (P14618 whole entry): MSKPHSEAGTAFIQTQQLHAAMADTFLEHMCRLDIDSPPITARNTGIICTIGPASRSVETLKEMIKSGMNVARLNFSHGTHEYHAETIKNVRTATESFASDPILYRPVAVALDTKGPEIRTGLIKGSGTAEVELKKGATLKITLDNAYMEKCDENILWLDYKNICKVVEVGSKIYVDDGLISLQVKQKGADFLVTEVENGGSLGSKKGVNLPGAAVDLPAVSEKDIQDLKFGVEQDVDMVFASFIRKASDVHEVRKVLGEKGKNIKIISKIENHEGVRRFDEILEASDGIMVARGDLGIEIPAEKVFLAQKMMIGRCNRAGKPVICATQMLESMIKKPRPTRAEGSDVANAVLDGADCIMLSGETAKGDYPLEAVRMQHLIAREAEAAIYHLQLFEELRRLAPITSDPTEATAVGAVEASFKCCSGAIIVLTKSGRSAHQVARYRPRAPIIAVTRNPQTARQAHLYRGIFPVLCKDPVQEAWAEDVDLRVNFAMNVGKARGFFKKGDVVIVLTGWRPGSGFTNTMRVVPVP

SMILES	Max. Resp. (%)	AC50 [1]	AC50
O=C(c1cc(C(F)(F)F)n[nH]1)N(CCC(F)(F)F)Cc1ccc(O)cc1F [Compound 130]	100%	1000 nM	–
O=C(c1cc(C(F)(F)F)n[nH]1)N(Cc1ccc(O)cc1F)C1CCCC1 [Compound 132]	100%	213 nM	–
NCCN(Cc1ccc(O)cc1F)C(=O)c1cc(C(F)(F)F)n[nH]1 [Compound 133]	100%	1270 nM	–
Nc1ccc(CN(CC2CCC2)C(=O)c2cc(C(F)(F)F)n[nH]2)c(Cl)c1 [Compound 134]	100%	1080 nM	–
O=C(c1cc(C(F)(F)F)n[nH]1)N(Cc1cccc2[nH]ccc12)NC1CCC1 [Compound 135]	100%	68 nM	–
O=C(c1cc(C(F)(F)F)n[nH]1)N(Cc1cccc(F)c1O)CC1CCC1 [Compound 136]	100%	380 nM	–
O=C(c1cc(C(F)(F)F)n[nH]1)N(CCO)Cc1ccc(O)cc1F [Compound 137]	70%	6200 nM	–
O=C(c1cc(C(F)(F)F)n[nH]1)N(Cc1ccc(O)cc1F)C1CCCCC1 [Compound 139]	100%	152 nM	–
O=C(c1cc(C(F)(F)F)n[nH]1)N(CCC1CC1)Cc1ccc(O)cc1F [Compound 140]	100%	32 nM	–
O=C(c1cc(C(F)(F)F)n[nH]1)N(Cc1cccc(Cl)c1O)CC1CCC1 [Compound 141]	100%	6500 nM	–
COCCN(Cc1ccc(O)cc1F)C(=O)c1cc(C(F)(F)F)n[nH]1 [Compound 142]	100%	1190 nM	–
CCN(CC)CCN(Cc1ccc(O)cc1F)C(=O)c1cc(C(F)(F)F)n[nH]1 [Compound 143]	100%	108 nM	–
O=C(c1cc(C(F)(F)F)n[nH]1)N(Cc1cn[nH]c1)Cc1cccc2[nH]cnc12 [Compound 144]	–	25000 nM	–
NCc1ccccc1CN(CC1CCC1)C(=O)c1cc(C(F)(F)F)n[nH]1 [Compound 145]	–	25500 nM	–
CCN(CC)CCN(Cc1ccccc1F)C(=O)c1cc(C(F)(F)F)n[nH]1 [Compound 148]	100%	–	505 nM
O=C(c1cc(C(F)(F)F)n[nH]1)N(CCC1CC1)Cc1ccccc1F [Compound 149]	100%	2000 nM	–
O=C(c1cc(C(F)(F)F)n[nH]1)N(Cc1ccccc1F)CC1CCOC1 (stereo not shown) [Compound 150]	68%	16000 nM	–
CCN1CCC(N(Cc2ccccc2F)C(=O)c2cc(C(F)(F)F)n[nH]2)C1 (stereo not shown) [Compound 152]	68%	13500 nM	–
O=C(c1cc(C(F)(F)F)n[nH]1)N(Cc1ccccc1F)C1CCCCC1 [Compound 153]	57%	19000 nM	–
CCN(CC)CCN(Cc1cccc(N)c1)C(=O)c1cc(C(F)(F)F)n[nH]1 [Compound 154]	100%	1430 nM	–
CCNCCN(Cc1ccccc1F)C(=O)c1cc(C(F)(F)F)n[nH]1 [Compound 155]	100%	2150 nM	–
O=C(c1cc(C(F)(F)F)n[nH]1)N(CCN1CCCC1)Cc1ccccc1F [Compound 158]	100%	265 nM	–

SMILES	Max. Resp. (%)	AC50 [1]	AC50
CCN(CC)CCN(Cc1ccccc1Cl)C(=O)c1cc(C(F)(F)F)n[nH]1 [Compound 159]	100%	73 nM	–
CCN(CC)CCN(Cc1cccc2[nH]cnc12)C(=O)c1cc(C(F)(F)F)n[nH]1 [Compound 160]	100%	825 nM	–
CCN(CC)CCN(Cc1cccc2[nH]ccc12)C(=O)c1cc(C(F)(F)F)n[nH]1 [Compound 161]	100%	76 nM	–
O=C(c1cc(C(F)(F)F)n[nH]1)N(CCN1CCCC1)Cc1ccccc1Cl [Compound 162]	100%	–	107 nM
O=C(c1cc(C(F)(F)F)n[nH]1)N(CCN1CCCC1)Cc1cccc2nc[nH]c12 [Compound 163]	100%	1080 nM	–
O=C(c1cc(C(F)(F)F)n[nH]1)N(CCN1CCCC1)Cc1cccc2[nH]ccc12 [Compound 164]	100%	113 nM	–
O=C(c1cc(C(F)(F)F)n[nH]1)N(CCN1CCCC1)Cc1ccc(Cl)cc1Cl [Compound 165]	50%	45000 nM	–
CCN(CC)CCN(Cc1cccc(Cl)c1Cl)C(=O)c1cc(C(F)(F)F)n[nH]1 [Compound 167]	100%	186 nM	–
CCN(CC)CCN(Cc1cc(Cl)ccc1Cl)C(=O)c1cc(C(F)(F)F)n[nH]1 [Compound 168]	100%	97 nM	–
CCN(CC)CCN(Cc1c(Cl)cccc1Cl)C(=O)c1cc(C(F)(F)F)n[nH]1 [Compound 169]	100%	66 nM	–
CCN(CC)CCN(Cc1ccc(F)cc1Cl)C(=O)c1cc(C(F)(F)F)n[nH]1 [Compound 170]	100%	–	505 nM
CCN(CC)CCN(Cc1cc(F)ccc1Cl)C(=O)c1cc(C(F)(F)F)n[nH]1 [Compound 171]	100%	–	88 nM
CCN(CC)CCN(Cc1c(F)cccc1Cl)C(=O)c1cc(C(F)(F)F)n[nH]1 [Compound 172]	100%	94 nM	–
O=C(c1cc(C(F)(F)F)n[nH]1)N(CCN1CCCCC1)Cc1ccccc1Cl [Compound 173]	100%	66 nM	–
O=C(c1cc(C(F)(F)F)n[nH]1)N(CCN1CCOCC1)Cc1ccccc1Cl [Compound 174]	100%	1490 nM	–
CCN(CC)CCN(Cc1ccccc1Cl)C(=O)c1cc(Br)n[nH]1 [Compound 175]	100%	–	305 nM
O=C(c1cc(C(F)(F)F)n[nH]1)N(CCN1CCCC1)Cc1c(F)cccc1Cl [Compound 177]	100%	180 nM	–
O=C(c1cc(C(F)(F)F)n[nH]1)N(CCN1CCCC1)Cc1c(Cl)cccc1Cl [Compound 178]	100%	126 nM	–
O=C(c1cc(C(F)(F)F)n[nH]1)N(CCN1CCCCC1)Cc1c(F)cccc1Cl [Compound 179]	100%	133 nM	–
O=C(c1cc(C(F)(F)F)n[nH]1)N(CCN1CCCCC1)Cc1c(Cl)cccc1Cl [Compound 180]	100%	154 nM	–
CC(CN(Cc1ccccc1Cl)C(=O)c1cc(C(F)(F)F)n[nH]1)N1CCCC1 (stereo not shown) [Compound 181]	100%	430 nM	–
CCN(CC)CCN(Cc1cccc(F)c1Cl)C(=O)c1cc(C(F)(F)F)n[nH]1 [Compound 182]	100%	–	109 nM

SMILES	Max. Resp. (%)	AC50 [1]	AC50
CCN(CC)CCN(Cc1cc(N)ccc1Cl)C(=O)c1cc(C(F)(F)F)n[nH]1 [Compound 183]	100%	185 nM	–
CCN(CC)CCN(Cc1ccccc1C(C)C)C(=O)c1cc(C(F)(F)F)n[nH]1 [Compound 184]	85%	1950 nM	–
CCN(CC)CCCN(Cc1ccccc1Cl)C(=O)c1cc(C(F)(F)F)n[nH]1 [Compound 185]	53%	1750 nM	–
CN(C)CCCN(Cc1ccccc1Cl)C(=O)c1cc(C(F)(F)F)n[nH]1 [Compound 186]	100%	375 nM	–
CN(C)CCN(Cc1ccccc1Cl)C(=O)c1cc(C(F)(F)F)n[nH]1 [Compound 187]	100%	295 nM	–
CC1CC(C)CN(CCN(Cc2ccccc2Cl)C(=O)c2cc(C(F)(F)F)n[nH]2)C1 (stereo not shown) [Compound 188]	60%	46 nM	–
O=C(c1cc(C(F)(F)F)n[nH]1)N(CCN1CCCCCC1)Cc1ccccc1Cl [Compound 189]	100%	24 nM	–
CC1CCN(CCN(Cc2ccccc2Cl)C(=O)c2cc(C(F)(F)F)n[nH]2)CC1 [Compound 190]	100%	42 nM	–
CC1CCCN(CCN(Cc2ccccc2Cl)C(=O)c2cc(C(F)(F)F)n[nH]2)C1 (stereo not shown) [Compound 191]	100%	29 nM	–
CC1CCCCN1CCN(Cc1ccccc1Cl)C(=O)c1cc(C(F)(F)F)n[nH]1 (stereo not shown) [Compound 192]	100%	104 nM	–
CCN(CC)CCN(Cc1ccccc1Cl)C(=O)c1[nH]nc(Cl)c1F [Compound 193]	58%	14000 nM	–
O=C(c1cc(C(F)(F)F)n[nH]1)N(CCN1CCCCCC1)Cc1ccc(O)cc1Cl [Compound 194]	100%	43 nM	–
O=C(c1cc(C(F)(F)F)n[nH]1)N(CCN1CCCCCC1)Cc1ccc(O)cc1F [Compound 195]	100%	–	95 nM
Nc1ccc(Cl)c(CN(CCN2CCCCCC2)C(=O)c2cc(C(F)(F)F)n[nH]2)c1 [Compound 196]	100%	99 nM	–
O=C(c1cc(C(F)(F)F)n[nH]1)N(CCN1CCCCCC1)Cc1ccccc1F [Compound 197]	100%	63 nM	–
O=C(c1cc(C(F)(F)F)n[nH]1)N(CCN1CCCCCC1)Cc1c(F)cccc1F [Compound 198]	100%	130 nM	–
CCC1CCN(CCN(Cc2ccccc2Cl)C(=O)c2cc(C(F)(F)F)n[nH]2)CC1 [Compound 199]	100/100%	100 nM	–
CC1CCCN(CCN(Cc2cc(N)ccc2Cl)C(=O)c2cc(C(F)(F)F)n[nH]2)C1 (stereo not shown) [Compound 200]	100%	130 nM	–
CC1CCCN(CCN(Cc2ccccc2F)C(=O)c2cc(C(F)(F)F)n[nH]2)C1 (stereo not shown) [Compound 201]	100%	215 nM	–
CC1CCCCN1CCN(Cc1cc(N)ccc1Cl)C(=O)c1cc(C(F)(F)F)n[nH]1 (stereo not shown) [Compound 202]	100%	395 nM	–
CC1CCCCN1CCN(Cc1ccccc1F)C(=O)c1cc(C(F)(F)F)n[nH]1 (stereo not shown) [Compound 203]	100%	550 nM	–
CCN(CCN(Cc1ccccc1Cl)C(=O)c1cc(C(F)(F)F)n[nH]1)C(C)C [Compound 204]	53%	880 nM	–
